Experimental findings from ChEMBL document CHEMBL2439992, “Fused 3-Hydroxy-3-trifluoromethylpyrazoles Inhibit Mutant Huntingtin Toxicity” (ACS Med Chem Lett, 2013) are described below.

In brackets after ≈: the same amount, converted by molar mass. Activity calls are given as the source filed them. The rule behind the calls is not given here.

Data set [1] is described as follows: Kinetic solubility of the compound at pH 7.4. It counts as physicochemical. The note with it: buffer, read-out: Kinetic_solubility.
The nature of data set [2]: Stability of the compound at pH 3 to 7.4 assessed as dehydration. It counts as physicochemical. The note with it: buffer.
The nature of data set [3]: Inhibition of full-length huntingtin Q138 mutant (unknown origin) expressed in human T-RexTM-293 cells co-expressing CRE-Luc assessed as decrease of CREB-mediated transcription after 72 hrs by luciferase reporter gene based luminescence assay. It counts as cell-based. The note with it: HEK293, 72 h. (Reporter assays use an easily measured gene product as a stand-in for the process of interest.)

Data set [4] deals with HEK293. In words: Inhibition of full-length huntingtin Q138 mutant (unknown origin) expressed in human T-RexTM-293 cells co-expressing CRE-Luc assessed as decrease of CREB-mediated transcription after 72 hrs by luciferase reporter gene based luminescence assay relative to control. It counts as cell-based.
Data set [5] in a line: Intrinsic clearance in mouse liver microsomes at 1 uM in presence of NADPH. It counts as ADME, Microsome. As to conditions: read-out: CLH.
A short description of data set [6]: Permeability of the compound from apical to basolateral side of MDCK cells expressing MDR1 after 120 mins. It counts as ADME, cell-based, Canis lupus familiaris. As to conditions: dog, read-out: permeability.
Data set [7] is described as follows: Intrinsic clearance in human liver microsomes at 1 uM in presence of NADPH. It counts as ADME, Microsome. As to conditions: read-out: CLH. (In general: Microsomes from liver hold many membrane-bound enzymes, among them those of drug oxidation.)
The subject of the next data set is MDCK. The experiment in a line: Efflux ratio of permeability […] in MDCK cells expressing MDR1 after 120 mins. Type of data set: ADME, cell-based, Canis lupus familiaris. As to conditions: dog, 2 h.
The species entered for another data set is Rattus norvegicus. In words: Inhibition of huntingtin 171-82Q mutant-mediated cell death in Sprague-Dawley rat striatal neurons at 10 to 30 uM by NeuN-positive cell counting assay.
In data set [8] the target is Huntingtin (Rattus norvegicus) (UniProt P51111). The experiment in a line: Inhibition of wild type huntingtin 171-18Q-mediated cell death in Sprague-Dawley rat striatal neurons at 1 to 30 uM by NeuN-positive cell counting assay.
A short description of data set [9]: Cytotoxicity in Sprague-Dawley rat striatal neurons. It counts as cell-based. As to conditions: neuron.
Data set [10] has as its system HEK293. In words: Inhibition of full-length huntingtin Q138 mutant (unknown origin) expressed in human T-RexTM-293 cells co-expressing CRE-Luc assessed as decrease of CREB-mediated transcription up to 50 uM after 72 hrs by luciferase reporter gene based luminescence assay. Type of data set: cell-based.

Chain of Huntingtin (Rattus norvegicus) (P51111 whole entry): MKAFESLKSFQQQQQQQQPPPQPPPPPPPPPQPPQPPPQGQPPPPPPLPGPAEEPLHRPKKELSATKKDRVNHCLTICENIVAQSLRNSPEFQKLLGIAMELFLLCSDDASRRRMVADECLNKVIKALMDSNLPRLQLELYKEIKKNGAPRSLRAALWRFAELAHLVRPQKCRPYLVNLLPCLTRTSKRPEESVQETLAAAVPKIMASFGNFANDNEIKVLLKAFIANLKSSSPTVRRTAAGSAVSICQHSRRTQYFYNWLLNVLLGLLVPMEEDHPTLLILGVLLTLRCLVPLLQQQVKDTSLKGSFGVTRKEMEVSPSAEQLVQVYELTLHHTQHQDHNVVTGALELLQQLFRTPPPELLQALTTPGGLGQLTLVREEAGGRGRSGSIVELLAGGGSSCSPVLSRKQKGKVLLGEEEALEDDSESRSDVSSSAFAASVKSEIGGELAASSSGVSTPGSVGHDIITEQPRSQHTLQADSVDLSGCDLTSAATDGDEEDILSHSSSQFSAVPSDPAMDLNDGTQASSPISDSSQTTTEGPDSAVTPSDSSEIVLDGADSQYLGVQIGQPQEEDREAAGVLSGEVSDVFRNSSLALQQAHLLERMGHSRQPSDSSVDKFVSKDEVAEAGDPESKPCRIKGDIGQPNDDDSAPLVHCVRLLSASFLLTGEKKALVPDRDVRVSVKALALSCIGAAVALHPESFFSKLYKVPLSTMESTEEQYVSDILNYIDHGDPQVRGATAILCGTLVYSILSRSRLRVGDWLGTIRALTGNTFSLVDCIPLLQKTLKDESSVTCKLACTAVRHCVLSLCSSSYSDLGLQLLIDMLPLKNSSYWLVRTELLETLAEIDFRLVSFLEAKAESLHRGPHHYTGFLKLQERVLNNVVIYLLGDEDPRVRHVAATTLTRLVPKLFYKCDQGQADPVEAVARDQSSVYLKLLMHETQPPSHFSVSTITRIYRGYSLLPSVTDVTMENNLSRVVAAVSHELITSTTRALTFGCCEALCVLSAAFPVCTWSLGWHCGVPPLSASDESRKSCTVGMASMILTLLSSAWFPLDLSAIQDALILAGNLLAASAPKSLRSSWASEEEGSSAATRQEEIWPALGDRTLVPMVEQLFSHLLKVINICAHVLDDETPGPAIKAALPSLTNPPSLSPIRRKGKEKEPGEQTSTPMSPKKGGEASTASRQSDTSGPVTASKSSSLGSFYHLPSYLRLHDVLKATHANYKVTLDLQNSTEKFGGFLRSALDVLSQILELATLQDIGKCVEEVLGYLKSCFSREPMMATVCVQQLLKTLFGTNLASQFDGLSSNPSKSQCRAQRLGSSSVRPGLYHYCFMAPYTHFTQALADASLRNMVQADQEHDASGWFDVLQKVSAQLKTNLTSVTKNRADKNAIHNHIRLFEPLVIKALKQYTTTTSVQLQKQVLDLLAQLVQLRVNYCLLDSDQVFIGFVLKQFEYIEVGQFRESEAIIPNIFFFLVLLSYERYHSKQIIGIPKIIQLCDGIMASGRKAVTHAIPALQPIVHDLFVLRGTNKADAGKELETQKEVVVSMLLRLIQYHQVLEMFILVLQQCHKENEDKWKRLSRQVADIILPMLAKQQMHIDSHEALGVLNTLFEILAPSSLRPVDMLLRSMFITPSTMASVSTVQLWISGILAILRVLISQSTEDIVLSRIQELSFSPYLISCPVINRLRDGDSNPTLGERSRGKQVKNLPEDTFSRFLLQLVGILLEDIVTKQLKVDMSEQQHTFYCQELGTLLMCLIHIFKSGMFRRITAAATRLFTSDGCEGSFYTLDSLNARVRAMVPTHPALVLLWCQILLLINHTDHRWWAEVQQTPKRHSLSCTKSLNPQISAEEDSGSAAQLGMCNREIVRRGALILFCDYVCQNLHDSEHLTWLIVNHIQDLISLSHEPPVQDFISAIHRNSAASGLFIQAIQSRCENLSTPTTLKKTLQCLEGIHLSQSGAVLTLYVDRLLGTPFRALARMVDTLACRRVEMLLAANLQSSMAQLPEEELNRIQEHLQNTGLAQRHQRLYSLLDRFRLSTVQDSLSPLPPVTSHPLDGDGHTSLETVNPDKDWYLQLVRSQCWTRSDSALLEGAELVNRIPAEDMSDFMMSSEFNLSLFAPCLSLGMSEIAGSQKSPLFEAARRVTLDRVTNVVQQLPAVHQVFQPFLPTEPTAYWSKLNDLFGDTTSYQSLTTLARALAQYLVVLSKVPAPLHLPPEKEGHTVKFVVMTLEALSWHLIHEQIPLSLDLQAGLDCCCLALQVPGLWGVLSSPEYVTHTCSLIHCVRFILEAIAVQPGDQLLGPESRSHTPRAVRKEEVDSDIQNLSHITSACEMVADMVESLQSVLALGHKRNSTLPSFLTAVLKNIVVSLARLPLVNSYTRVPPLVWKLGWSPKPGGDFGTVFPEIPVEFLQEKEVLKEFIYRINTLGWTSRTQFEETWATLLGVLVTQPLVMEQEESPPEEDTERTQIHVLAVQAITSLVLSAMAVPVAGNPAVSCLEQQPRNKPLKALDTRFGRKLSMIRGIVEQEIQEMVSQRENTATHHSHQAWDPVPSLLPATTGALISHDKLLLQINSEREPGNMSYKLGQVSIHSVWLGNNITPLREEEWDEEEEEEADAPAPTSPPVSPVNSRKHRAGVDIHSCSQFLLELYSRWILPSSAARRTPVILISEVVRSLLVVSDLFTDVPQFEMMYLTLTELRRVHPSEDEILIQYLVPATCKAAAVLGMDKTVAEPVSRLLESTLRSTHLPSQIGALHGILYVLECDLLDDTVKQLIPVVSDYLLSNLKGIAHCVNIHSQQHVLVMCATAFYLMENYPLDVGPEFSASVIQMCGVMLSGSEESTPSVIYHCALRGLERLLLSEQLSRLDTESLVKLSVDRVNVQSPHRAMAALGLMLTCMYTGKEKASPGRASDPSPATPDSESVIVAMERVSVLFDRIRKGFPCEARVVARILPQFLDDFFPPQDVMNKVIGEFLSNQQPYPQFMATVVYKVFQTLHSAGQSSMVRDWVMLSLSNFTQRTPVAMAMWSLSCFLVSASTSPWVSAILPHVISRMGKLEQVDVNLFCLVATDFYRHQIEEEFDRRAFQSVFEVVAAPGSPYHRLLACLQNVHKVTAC

In the case of `O=C(c1cncc(Br)c1)N1N=C2CCOC[C@@H]2[C@@]1(O)C(F)(F)F` (racemic), the solubility kinetic in [1] was 111 µM (≈ 43.8 µg/mL). Moreover, in [2], the Stability result is “Stable”. Further, the EC50 (commonly the concentration at which the effect is half-maximal) in data set [3] is 22.4 µM. In the data set on HEK293 [4], the Emax (in general, the size of the effect at its maximum, as opposed to the concentration needed) worked out at 24%.
Consider `CCNc1cn(C)nc1C(=O)N1N=C2CCCC[C@@H]2[C@@]1(O)C(F)(F)F` (racemic), for which, in data set [1], the solubility kinetic is 182 µM (≈ 65.4 µg/mL). For the same compound, the Stability entry in [2] is “Stable”. In data set [3], the half-maximal effective concentration (EC50) was determined as 19.9 µM. The Emax in the data set with HEK293 [4] stood at 37%.
On to `Cc1ccc(C(=O)N2N=C3CCCC[C@@H]3[C@@]2(O)C(F)(F)F)cn1` (racemic), for which, in [1], the solubility kinetic came out at 212 µM (≈ 69.4 µg/mL). Moreover, the microsomal CLint at 1 µM in data set [5] is 174 µL/min/mg; in data set [7] it was 19.2 µL/min/mg. Besides, the Papp A→B at 2 h in data set [6] was determined as 43.4 ×10⁻⁶ cm/s. For the same compound, the Stability result in [2] is “Stable”. Moreover, the Ratio with MDCK was determined as 1.5. The EC50 in data set [3] is 3.7 µM. Besides, in the data set with HEK293 [4], the Emax came to 43%.
Take `Cn1cnc(S(=O)(=O)N2N=C3CCCC[C@@H]3[C@@]2(O)C(F)(F)F)c1` (racemic): the solubility kinetic in data set [1] was determined as 156 µM (≈ 55 µg/mL). The microsomal CLint at 1 µM in data set [5] came out at 28.3 µL/min/mg; in data set [7], 37.6 µL/min/mg. Moreover, in [6], the Papp A→B at 2 h came to 12.8 ×10⁻⁶ cm/s. The inhibition result (in the data set listed under Rattus norvegicus; in [8]) was “Active” in each case. Further, the Stability entry in data set [2] is “Stable”. Also, the Ratio in the data set with MDCK is recorded as 0.9. Moreover, the EC50 in data set [3] worked out at 1.7 µM. Moreover, the Emax in the data set on HEK293 [4] was 41%. In addition, the Activity result in [9] is “Non-toxic”.
In the case of `Cc1nn(C)c(Cl)c1S(=O)(=O)N1N=C2CCOC[C@@H]2[C@@]1(O)C(F)(F)F` (racemic), the Stability entry in [2] was “Stable”. Moreover, the EC50 in data set [3] worked out at 30 µM. In the data set on HEK293 [4], the Emax is -17%.
Regarding `O=C(c1ccc[nH]1)N1N=C2CCCCC[C@@H]2[C@@]1(O)C(F)(F)F` (racemic), the solubility kinetic in data set [1] stood at 30 µM (≈ 9.46 µg/mL). In addition, the Stability entry in [2] is reported as “Stable”. For the same compound, the EC50 in [3] was 14.2 µM. Besides, the Emax in the data set on HEK293 [4] worked out at 6%.
`O=C(c1ccncc1)N1N=C2CCCCC[C@@H]2[C@@]1(O)C(F)(F)F` (racemic): the solubility kinetic in data set [1] was 96 µM (≈ 31.4 µg/mL). Also, the microsomal CLint at 1 µM in [5] turned out to be 170 µL/min/mg; in data set [7], 71.9 µL/min/mg. In addition, in data set [6], the Papp A→B at 2 h was 36.2 ×10⁻⁶ cm/s. Moreover, the Stability result in data set [2] is reported as “Stable”. Moreover, in the data set on MDCK, the Ratio came out at 1. In data set [3], the 50% effective concentration (EC50) worked out at 10.8 µM. Also, the Emax in the data set on HEK293 [4] was 34%.
Consider `Nc1nc(C(=O)N2N=C3CCCC[C@@H]3[C@@]2(O)C(F)(F)F)co1` (racemic), for which the solubility kinetic in [1] is 153 µM (≈ 48.7 µg/mL). Further, the microsomal CLint at 1 µM was 21.1 µL/min/mg in data set [5] and 6.1 µL/min/mg in data set [7]. Moreover, the Papp A→B at 2 h in data set [6] is 29.1 ×10⁻⁶ cm/s. Besides, the Stability result in data set [2] was “Stable”. Further, the Ratio in the data set on MDCK is 1.1. In addition, the half-maximal effective concentration (EC50) in data set [3] was determined as 17.1 µM. Moreover, in the data set on HEK293 [4], the Emax worked out at 21%.
For `O=C(c1ccncc1)N1N=C2CCCC[C@@H]2[C@@]1(O)C(F)(F)F` (racemic), in data set [1], the solubility kinetic stood at 98 µM (≈ 30.7 µg/mL). Also, the microsomal CLint at 1 µM in data set [5] amounted to 54.6 µL/min/mg; in data set [7], 21.4 µL/min/mg. In addition, in [6], the Papp A→B at 2 h was found to be 36 ×10⁻⁶ cm/s. Moreover, the inhibition entry (in the data set filed under Rattus norvegicus; in data set [8]) was “Active” each time. The Stability entry in data set [2] is on record as “Stable”. For the same compound, the Ratio in the data set on MDCK is listed as 1.1. Also, in data set [3], the EC50 came out at 9.1 µM. In addition, the Emax in the data set with HEK293 [4] was 42%. The Activity entry in data set [9] is “Non-toxic”.
`O=C(c1ccc[nH]1)N1N=C2CCCC[C@@H]2[C@@]1(O)C(F)(F)F` (racemic): the solubility kinetic in [1] is 72 µM (≈ 21.7 µg/mL). In data set [2], the Stability entry is reported as “Stable”. Also, the EC50 in data set [3] is 28.7 µM. Moreover, the Emax in the data set on HEK293 [4] stood at 20%.
Take `O=C(c1cccnc1)N1N=C2CCOC[C@@H]2[C@@]1(O)C(F)(F)F` (racemic): in data set [1], the solubility kinetic is 187 µM (≈ 59 µg/mL). Besides, the values for the microsomal CLint at 1 µM in data set [5] and in data set [7] were 16.6 µL/min/mg and 15.7 µL/min/mg, respectively. The Papp A→B at 2 h in [6] was 29.2 ×10⁻⁶ cm/s. In addition, in data set [2], the Stability entry is on record as “Stable”. The Ratio in the data set with MDCK is recorded as 1.1. Further, the half-maximal effective concentration (EC50) in data set [3] came to 6.1 µM. In the data set on HEK293 [4], the Emax is 40%.
On to `Cc1cccc(C(=O)N2N=C3CCCC[C@@H]3[C@@]2(O)C(F)(F)F)c1O` (racemic), for which, in data set [1], the solubility kinetic came out at 101 µM (≈ 34.6 µg/mL). The microsomal CLint at 1 µM is greater than 700 µL/min/mg in data set [5] and 352 µL/min/mg in data set [7]. The Papp A→B at 2 h in data set [6] worked out at 31.6 ×10⁻⁶ cm/s. Moreover, the Stability entry in data set [2] is listed as “Stable”. The Ratio with MDCK turned out to be 0.8. In addition, in data set [3], the 50% effective concentration (EC50) was 5.2 µM. Besides, the Emax in the data set on HEK293 [4] is 32%.
Consider `CCOC(=O)c1c[nH]nc1S(=O)(=O)N1N=C2CCCC[C@@H]2[C@@]1(O)C(F)(F)F` (racemic), for which the solubility kinetic in [1] was 111 µM (≈ 45.6 µg/mL). In addition, the Stability result in data set [2] was “Stable”. In addition, in [3], the concentration giving a half-maximal response (EC50) was found to be 1.8 µM. Further, the Emax in the data set on HEK293 [4] worked out at 34%.
On to `CC1=NN(C(=O)c2cccc(C)c2O)C(O)(C(F)(F)F)C1C` (stereo unspecified), for which the solubility kinetic in [1] was determined as 5 µM (≈ 1.58 µg/mL). For the same compound, the inhibition result with HEK293 [10] was “inactive”. Besides, in [3], the half-maximal effective concentration (EC50) is greater than 50 µM.
Consider `Cn1cc(Br)c(C(=O)N2N=C3CCCC[C@@H]3[C@@]2(O)C(F)(F)F)n1` (racemic), for which the solubility kinetic in data set [1] turned out to be 114 µM (≈ 45.1 µg/mL). The microsomal CLint at 1 µM in data set [5] is 101 µL/min/mg; in data set [7] it was 17.7 µL/min/mg. Moreover, the Papp A→B at 2 h in data set [6] came out at 39.3 ×10⁻⁶ cm/s. The inhibition entry (in the data set listed under Rattus norvegicus; in [8]) was “Active” each time. The Stability entry in [2] is listed as “Stable”. Also, the Ratio in the data set on MDCK came out at 1. In data set [3], the half-maximal effective concentration (EC50) came to 4.9 µM. In the data set with HEK293 [4], the Emax was determined as 29%. Moreover, in data set [9], the Activity entry is recorded as “Non-toxic”.
Turning to `Cn1cc(N)c(C(=O)N2N=C3CCCC[C@@H]3[C@@]2(O)C(F)(F)F)n1` (racemic), the solubility kinetic in data set [1] turned out to be 205 µM (≈ 67.9 µg/mL). Also, the figures for the microsomal CLint at 1 µM in data set [5] and in data set [7] were 22.9 µL/min/mg and less than 5 µL/min/mg, respectively. Further, the Papp A→B at 2 h in [6] stood at 17.2 ×10⁻⁶ cm/s. Besides, in [2], the Stability entry is listed as “Stable”. Further, in the data set with MDCK, the Ratio is recorded as 1.6. The EC50 in data set [3] stood at 6.6 µM. Further, in the data set with HEK293 [4], the Emax was 30%.
On to `Cc1ccc(C(=O)N2N=C3CCCCC[C@@H]3[C@@]2(O)C(F)(F)F)cn1` (racemic), for which the solubility kinetic in data set [1] came out at 56 µM (≈ 19.1 µg/mL). Further, the Stability entry in data set [2] is “Stable”. The EC50 in data set [3] worked out at 10 µM. Moreover, the Emax in the data set with HEK293 [4] came out at 30%.
